Source: patent US6689779B2, “Oxazolidinone derivatives and a process for the preparation thereof” (priority 2000, dated 2004)
Values after ≈ are worked out from the molar mass of the structure shown.

What was measured:
Assay type in all cases: cell-based
[1] = test system: ATCC 27294: Vancomycine Mycobacterium tuberculosis; assay: Assay for in vitro antibacterial activity, agar dilution method: ATCC 27294; settings: for MIC50: Mycobacterium tuberculosis, ATCC27294, read-out: Antibacterial Activity (MIC50) ATCC 27294; for Antibacterial Activity (MIC50) ATCC 27294: agar dilution method, Vancomycine Mycobacterium tuberculosis
[2] = test system: methicillin resistant Staphylococcus aureus; assay: Assay for in vitro antibacterial activity, agar dilution method: MRSA; settings: for Antibacterial Activity (MIC50) MRSA: agar dilution method, methicillin resistant Staphylococcus aureus
H. Influenzae = assay: Assay for in vitro antibacterial activity, agar dilution method: H. Influenzae
[3] = test system: vancomycin resistant Enterococci; assay: Assay for in vitro antibacterial activity, agar dilution method: VRE; settings: for Antibacterial Activity (MIC50) VRE: agar dilution method, vancomycin resistant Enterococci

| Structure (SMILES) | MIC50 [1] [µg/mL] | MIC50 ([2]; Staphylococcus aureus, MRSA, read-out: Antibacterial Activity (MIC50) MRSA) [µg/mL] | MIC50 (H. Influenzae; Haemophilus influenzae) [µg/mL] | MIC50 ([3]; Enterococcus, VRE, read-out: Antibacterial Activity (MIC50) VRE) [µg/mL] | Antibacterial Activity (MIC50) MRSA [2] [µg/mL] | Antibacterial Activity (MIC50) Influenzae (H. Influenzae) [µg/mL] | Antibacterial Activity (MIC50) VRE [3] [µg/mL] | Antibacterial Activity (MIC50) ATCC 27294 [1] [µg/mL] |
| --- | --- | --- | --- | --- | --- | --- | --- | --- |
| N[C@@H]1CON=C1O [Cycloserine, reference compound] | 6.25 (≈ 61.2 µM) | – | – | – | – | – | – | – |
| CC(=O)NC[C@H]1CN(c2ccc(N3CCOCC3)c(F)c2)C(=O)O1 [Example U-100766, reference compound] | 1.56 (≈ 4.62 µM) | 3.13 (≈ 9.28 µM) | 25 (≈ 74.1 µM) | 1.56 (≈ 4.62 µM) | – | – | – | – |
| CC(=O)NC[C@H]1CN(c2ccc(-c3ccc(-n4cncn4)nc3)c(F)c2)C(=O)O1 [Exmp. 129, (S)-[N-3-(4-(2-(1,2,4-triazol-1-yl)pyridin-5-yl)-3-fluorophenyl)-2-oxo-5-oxazolidinyl]methyl acetamide] | – | – | – | – | 0.39 | 6.25 | 0.2 | 0.1 |
| CC(=O)NC[C@H]1CN(c2ccc(-c3ccc(-n4cnnn4)nc3)c(F)c2)C(=O)O1 [Exmp. 136, (S)-(N-3-(4-(2-(1-tetrazolyl)-pyridin-5-yl)-3-fluorophenyl)-2-oxo-5-oxazolidinyl)methyl acetamide] | – | – | – | – | 0.78 | 12.5 | 0.2 | 0.1 |
| CC(=O)NC[C@H]1CN(c2ccc(-c3ccc(-c4nnc(C)o4)nc3)c(F)c2)C(=O)O1 [Exmp. 137, (S)-[N-3-(4-(2-(5-methyl-(1,3,4)-oxadiazol-2-yl)-pyridin-5-yl)-3-fluorophenyl)-2-oxo-5-oxazolidinyl]methyl acetamide] | – | – | – | – | 0.39 | 3.13 | 0.2 | 0.1 |
| CC(=O)NC[C@H]1CN(c2ccc(-c3ccc(-c4noc(C)n4)nc3)c(F)c2)C(=O)O1 [Exmp. 138, (S)-[N-3-(4-(2-(5-methyl-(1,2,4)-oxadiazol-3-yl)pyridin-5-yl)-3-fluorophenyl)-2-oxo-5-oxazolidinyl]methyl acetamide] | – | – | – | – | 0.78 | 3.13 | 0.39 | 0.1 |
| CC(=O)NC[C@H]1CN(c2ccc(-c3ccc(-c4nnnn4C)nc3)c(F)c2)C(=O)O1 [Exmp. 139, (S)-[N-3-(4-(2-(1-methyl-5-tetrazolyl)-pyridin-5-yl)-3-fluorophenyl)-2-oxo-5-oxazolidinyl]methyl acetamide] | – | – | – | – | 0.78 | 3.13 | 0.2 | 0.1 |
| CC(=O)NC[C@H]1CN(c2ccc(-c3ccc(-c4nnn(C)n4)nc3)c(F)c2)C(=O)O1 [Exmp. 140, (S)-[N-3-(4-(2-(2-methyl-5-tetrazolyl)-pyridin-5-yl)-3-fluorophenyl)-2-oxo-5-oxazolidinyl]methyl acetamide] | – | – | – | – | 0.78 | 12.5 | 0.2 | 0.1 |
| CC(=O)NC[C@H]1CN(c2ccc(-c3ccc(N4CCOC4=O)nc3)c(F)c2)C(=O)O1 [Exmp. 143, (S)-[N-3-(4-(2-(2-oxo-(1,3)-oxazolidin-3-yl)-pyridin-5-yl)-3-fluorophenyl)-2-oxo-5-oxazolidinyl]methyl acetamide] | – | – | – | – | 0.78 | 1.56 | 0.2 | 0.1 |
| CC(=O)NC[C@H]1CN(c2ccc(-c3ccc(-c4nnn[nH]4)nc3)c(F)c2)C(=O)O1 [Exmp. 152, (S)-[N-3-(4-(2-(5-Tetrazolyl)-5-pyridinyl)-3-fluorophenyl)-2-oxo-5-oxazolidinyl]methyl Acetamide] | – | – | – | – | >25 | >25 | >25 | >25 |
| CO[C@H]1/C=C/O[C@@]2(C)Oc3c(C)c(O)c4c(O)c(c(/C=N/N5CCN(C)CC5)c(O)c4c3C2=O)NC(=O)/C(C)=C\C=C\[C@H](C)[C@H](O)[C@@H](C)[C@@H](O)[C@@H](C)[C@H](OC(C)=O)[C@@H]1C [Rifampin, reference compound] | 0.2 (≈ 0.243 µM) | – | – | – | – | – | – | – |
